Laboratory results reported in ChEMBL document CHEMBL3390831, “Design, synthesis, and structureactivity relationships of indole-3-carboxamides as novel water soluble cannabinoid CB1 receptor agonists” (Medchemcomm, 2010).

Legend:
[1] = target: T1, Cannabinoid receptor 1 (Homo sapiens, UniProt P21554)
Description: Agonist activity at human cannabinoid CB1 receptor expressed in CHO cells co-expressing AP-1 response element after 5 hrs by luciferase reporter gene assay

[2] = Aqueous solubility of the compound in phosphate buffered saline at pH 7.4 by shake-flask method; type: physicochemical
[3] = Aqueous solubility of the compound in phosphate buffered saline at pH 7 by shake-flask method; type: physicochemical
[4] = Aqueous solubility of the compound in citrate buffer at pH 5 by shake-flask method; type: physicochemical
[5] = tested on: Mus musculus; assay: Antinociceptive activity in ICR mouse assessed as inhibition of time spent licking formalin injected paw at 0.3 umol/kg, iv after 5 to 10 mins relative to control; type: functional
[6] = tested on: Mus musculus; assay: Antinociceptive activity in iv dosed ICR mouse assessed as inhibition of time spent licking formalin injected paw after 5 to 30 mins; type: functional, organism-based
[7] = Aqueous solubility of the compound in phosphate buffered saline at pH 6.9 by shake-flask method; type: physicochemical
[8] = tested on: Brain; assay: AUC (0 to 1 hr) in ICR mouse brain at 3 umol/kg, iv; type: ADME, tissue-based; set-up: time < 1 hr, dose 3 umol/kg, route intravenous; conditions: in vivo
[9] = tested on: Mus musculus; assay: Antinociceptive activity in iv dosed ICR mouse assessed as increase of tail flick latency after 20 to 60 mins by tail flick latency test; type: functional, organism-based
[10] = tested on: Mus musculus; assay: Antinociceptive activity in ICR mouse assessed as increase of tail flick latency at 0.4 umol/kg, iv after 20 to 60 mins by tail flick latency test relative to control; type: functional
[11] = Clearance in ICR mouse plasma at 3 umol/kg, iv; type: ADME, cell-free
[12] = tested on: Mus musculus; assay: Antinociceptive activity in ICR mouse assessed as increase of tail flick latency at 1 umol/kg, iv after 20 to 60 mins by tail flick latency test relative to control; type: functional
[13] = tested on: Mus musculus; assay: Antinociceptive activity in ICR mouse assessed as increase of tail flick latency at 0.2 umol/kg, iv after 20 to 60 mins by tail flick latency test relative to control; type: functional
[14] = Ratio of Cmax in brain to plasma in ICR mouse at 3 umol/kg, iv; type: ADME, cell-free; conditions: brain and plasma, read-out: BPR
[15] = target: Cannabinoid receptor 2 (Homo sapiens, UniProt P34972); assay: Displacement of [3H]-CP55940 from human cannabinoid CB2 receptor expressed in Sf9 insect cells after 70 mins by scintillation counting
Chain of Cannabinoid receptor 2 (P34972 whole entry): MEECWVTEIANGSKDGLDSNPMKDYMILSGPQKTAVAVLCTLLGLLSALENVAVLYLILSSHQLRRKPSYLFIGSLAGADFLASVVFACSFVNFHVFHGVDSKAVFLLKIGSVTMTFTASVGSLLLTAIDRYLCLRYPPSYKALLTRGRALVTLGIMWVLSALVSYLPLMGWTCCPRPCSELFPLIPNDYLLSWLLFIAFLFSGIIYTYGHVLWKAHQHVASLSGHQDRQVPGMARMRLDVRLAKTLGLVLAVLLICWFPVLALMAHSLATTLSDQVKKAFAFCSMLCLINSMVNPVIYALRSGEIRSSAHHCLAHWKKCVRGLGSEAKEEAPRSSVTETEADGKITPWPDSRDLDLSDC

[16] = Tmax in ICR mouse plasma at 3 umol/kg, iv; type: ADME, cell-free
[17] = tested on: Mus musculus; assay: Antinociceptive activity in ICR mouse assessed as inhibition of time spent licking formalin injected paw at 0.3 umol/kg, iv after 20 to 30 mins relative to control; type: functional
[18] = Cmax in ICR mouse plasma at 3 umol/kg, iv; type: ADME, cell-free; set-up: dose 3 umol/kg, route intravenous
[19] = tested on: Mus musculus; assay: Antinociceptive activity in ICR mouse assessed as inhibition of time spent licking formalin injected paw at 0.1 umol/kg, iv after 5 to 10 mins relative to control; type: functional
[20] = Elimination half life in ICR mouse plasma at 3 umol/kg, iv; type: ADME, cell-free; conditions: read-out: beta t1/2 (converted)
[21] = tested on: Mus musculus; assay: Antinociceptive activity in ICR mouse assessed as inhibition of time spent licking formalin injected paw at 0.03 umol/kg, iv after 20 to 30 mins relative to control; type: functional
[22] = tested on: Mus musculus; assay: Antinociceptive activity in ICR mouse assessed as inhibition of time spent licking formalin injected paw at 0.01 umol/kg, iv after 5 to 10 mins relative to control; type: functional
[23] = Tmax in ICR mouse brain at 3 umol/kg, iv; type: ADME, tissue-based
[24] = Volume of distribution at steady state in ICR mouse plasma at 3 umol/kg, iv; type: ADME, cell-free; conditions: read-out: Vdss
[25] = tested on: Mus musculus; assay: Antinociceptive activity in iv dosed ICR mouse assessed as time taken for tail flick latency to return to within mean plus two standard deviations of baseline value following twice ED50 dose by tail flick latency test; type: functional
[26] = target: T1, Cannabinoid receptor 1; assay: biochemical
[27] = Intrinsic clearance in human liver microsomes; type: ADME; conditions: read-out: CLH
[28] = tested on: Mus musculus; assay: Antinociceptive activity in ICR mouse assessed as inhibition of time spent licking formalin injected paw at 0.1 umol/kg, iv after 20 to 30 mins relative to control; type: functional
[29] = tested on: Mus musculus; assay: Antinociceptive activity in ICR mouse assessed as inhibition of time spent licking formalin injected paw at 0.03 umol/kg, iv after 5 to 10 mins relative to control; type: functional
[30] = tested on: Mus musculus; assay: Antinociceptive activity in ICR mouse assessed as inhibition of time spent licking formalin injected paw at 0.01 umol/kg, iv after 20 to 30 mins relative to control; type: functional
[31] = Aqueous solubility of the compound in citrate buffer at pH 4.9 by shake-flask method; type: physicochemical
[32] = organism: Homo sapiens; assay: Selectivity ratio of Ki for human ERG to Ki for human cannabinoid CB2 receptor
[33] = organism: Homo sapiens; assay: Selectivity ratio of Ki for human ERG to Ki for human cannabinoid CB1 receptor
[34] = AUC in ICR mouse plasma at 3 umol/kg, iv; type: ADME, cell-free
[35] = Intrinsic clearance in mouse liver microsomes; type: ADME; conditions: read-out: CLH
[36] = Cmax in ICR mouse brain at 3 umol/kg, iv; type: ADME, tissue-based; set-up: dose 3 umol/kg, route intravenous
[37] = tested on: Mus musculus; assay: Antinociceptive activity in ICR mouse assessed as increase of tail flick latency at 0.3 umol/kg, iv after 20 to 60 mins by tail flick latency test relative to control; type: functional
[38] = tested on: Mus musculus; assay: Antinociceptive activity in ICR mouse assessed as increase of tail flick latency at 0.1 umol/kg, iv after 20 to 60 mins by tail flick latency test relative to control; type: functional
[39] = Aqueous solubility of the compound in phosphate buffered saline at pH 7.1 by shake-flask method; type: physicochemical

T1 sequence (P21554 whole entry): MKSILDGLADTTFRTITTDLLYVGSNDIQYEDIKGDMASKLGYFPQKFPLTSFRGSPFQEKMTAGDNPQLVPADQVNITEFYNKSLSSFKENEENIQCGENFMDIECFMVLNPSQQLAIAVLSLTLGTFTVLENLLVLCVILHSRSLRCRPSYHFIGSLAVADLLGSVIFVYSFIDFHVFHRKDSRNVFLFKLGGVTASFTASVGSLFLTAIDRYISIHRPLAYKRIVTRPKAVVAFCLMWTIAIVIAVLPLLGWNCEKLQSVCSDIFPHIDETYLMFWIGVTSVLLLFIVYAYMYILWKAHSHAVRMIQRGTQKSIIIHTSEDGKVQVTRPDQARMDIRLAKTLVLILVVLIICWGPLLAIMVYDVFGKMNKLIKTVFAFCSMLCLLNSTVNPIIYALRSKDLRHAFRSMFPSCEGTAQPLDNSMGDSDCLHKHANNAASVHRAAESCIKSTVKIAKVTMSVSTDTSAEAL

`CCN1CCN(C(=O)c2cn(CC3CCCCC3)c3cc(Cl)ccc23)CC1` gave an EC50 [1] of 1580 nM.
For `Cc1ccc2c(C(=O)N3CCN(C)CC3)cn(CC3CCCCC3)c2c1`, the EC50 [1] was 316 nM.
`CS(=O)(=O)O.O=C(Cc1ccccc1)N/N=C1\C(=O)N(CC2CCCCC2)c2cc(OCCN3CCOCC3)ccc21` gave a solubility thermodynamic [2] of less than 500 µg/mL.
In the case of `CCN1CCN(C(=O)c2cn(Cc3ccccc3)c3c(OC)cccc23)CC1`, the EC50 [1] is reported as greater than 3160 nM.
`CCN1CCN(C(=O)c2cn(CC3CCCCC3)c3c(C)cccc23)CC1` showed an EC50 [1] of 200 nM.
Work on `Cc1cccc2c1c(C(=O)N1CCN(C)CC1)cn2CC1CCCCC1` yielded an EC50 [1] greater than 3160 nM.
Work on `CCN1CCN(C(=O)c2cn(CC3CCCCC3)c3c(Br)cccc23)CC1` yielded an EC50 [1] of 794 nM.
Compound `COc1cccc2c(C(=O)N3CCN(C)C(C)(C)C3)cn(CC3CCCCC3)c12.Cl` has a solubility thermodynamic [3] of 129 µg/mL, a solubility thermodynamic [4] of 2160 µg/mL and an EC50 [1] of 158 nM.
Work on `CN(C)CCNC(=O)c1cn(CC2CCCCC2)c2ccccc12` yielded an EC50 [1] greater than 3160 nM.
With `CCN1CCN(C(=O)c2cn(CC3CCCCC3)c3c(Cl)cccc23)CC1` the EC50 [1] was 501 nM.
Work on `O=C(NCc1ccccc1)c1cn(CC2CCCCC2)c2ccccc12` yielded an EC50 [1] of 63.1 nM.
`CCN1CCN(C(=O)c2cn(CC3CCCCC3)c3cccc(F)c23)CC1` showed an EC50 [1] of 251 nM.
With `Cc1ccc2c(c1)c(C(=O)N1CCN(C)CC1)cn2CC1CCCCC1` the EC50 [1] was 2000 nM.
With `CN(C)CCN(C)C(=O)c1cn(CC2CCCCC2)c2ccccc12` the EC50 [1] was greater than 3160 nM.
For `COc1cccc2c(C(=O)N3CCN(C)[C@@H](C)C3)cn(CC3CCCCC3)c12.Cl`, the inhibition in vivo at 0.3 µmol/kg [5] was 100%, the inhibition [6] was “Dose-dependent effect” and the solubility thermodynamic [7] was 129 µg/mL. For the same compound, the AUC [8] was 804 ng·h/g, the Activity [9] was “Dose-dependent effect” and the MPE [10] was 50.1%. It also gave a clearance [11] of 77.3 mL/min/kg, an MPE [12] of 100% and an MPE [13] of 18.3%. The Kp [14] was 4, the Ki [15] was 1.58 nM and the Tmax [16] was 3 min. It also gave an inhibition in vivo at 0.3 µmol/kg [17] of 100%, a Cmax [18] of 620 ng/mL and an inhibition in vivo at 0.1 µmol/kg [19] of 99%. For the same compound, the half-life [20] was 24.6 min, the inhibition in vivo at 0.03 µmol/kg [21] was 79.7% and the inhibition in vivo at 0.01 µmol/kg [22] was 25.7%. It also gave a Tmax [23] of 10.2 min, a Vd [24] of 2.1 L/kg and a Time [25] of 90 min. It also gave a Ki [26] of 1.26 nM, a microsomal CLint [27] greater than 270 µL/min/mg and an inhibition in vivo at 0.1 µmol/kg [28] of 93.4%. It also gave an inhibition in vivo at 0.03 µmol/kg [29] of 66%, an inhibition in vivo at 0.01 µmol/kg [30] of 49.2% and a solubility thermodynamic [31] of 2810 µg/mL. The Ratio Ki [32] was greater than 100, the Ratio Ki [33] was greater than 100 and the AUC [34] was 248 ng·h/mL. For the same compound, the microsomal CLint [35] was greater than 270 µL/min/mg and the Cmax [36] was 2460 ng/g.
In the case of `COc1cccc2c(C(=O)N3C[C@@H](C)N(C)[C@@H](C)C3)cn(CC3CCCCC3)c12.Cl`, the inhibition in vivo at 0.3 µmol/kg [5] is reported as 97.8%, the inhibition [6] is reported as “Dose-dependent effect” and the MPE [37] is reported as 72.3%. The AUC [8] was 616 ng·h/g, the Activity [9] was “Dose-dependent effect” and the clearance [11] was 77.4 mL/min/kg. The MPE [12] was 100%, the MPE [38] was 14.5% and the Kp [14] was 2.7. The Ki [15] was 0.794 nM, the Tmax [16] was 3 min and the solubility thermodynamic [3] was 12 µg/mL. The inhibition in vivo at 0.3 µmol/kg [17] was 99.8%, the Cmax [18] was 593 ng/mL and the inhibition in vivo at 0.1 µmol/kg [19] was 84%. The half-life [20] was 19.2 min, the inhibition in vivo at 0.03 µmol/kg [21] was 86.9% and the inhibition in vivo at 0.01 µmol/kg [22] was 16.4%. It also gave a Tmax [23] of 3 min, a solubility thermodynamic [4] greater than 4000 µg/mL and a Vd [24] of 2 L/kg. For the same compound, the Time [25] was 50 min, the Ki [26] was 1.26 nM and the microsomal CLint [27] was greater than 270 µL/min/mg. It also gave an inhibition in vivo at 0.1 µmol/kg [28] of 93.3%, an inhibition in vivo at 0.03 µmol/kg [29] of 49.5% and an inhibition in vivo at 0.01 µmol/kg [30] of 7.8%. It also gave a Ratio Ki [32] greater than 100, a Ratio Ki [33] greater than 100 and an AUC [34] of 253 ng·h/mL. The microsomal CLint [35] was greater than 270 µL/min/mg and the Cmax [36] was 1620 ng/g.
In the case of `COc1cccc2c(C(=O)N3CCN(C)[C@H](C)C3)cn(CC3CCCCC3)c12.Cl`, the solubility thermodynamic [4] is reported as 2860 µg/mL, the EC50 [1] is reported as 126 nM and the solubility thermodynamic [39] is reported as 88 µg/mL.
